# Experimental data as given in patent US4221811A, “Antifungal and/or antibacterial organotin compounds, and use” (priority 1977, dated 1980).
# Assays:
# Aspergillus niger = assay type: cell-based; details: after three days, glucose-agar, pH~6.9-7.0
# Text: (§1) Antifungal activity of organotin compounds. Minimal concentra-
# (§2) tion (mg/l) causing complete inhibition of visible growth (MIC;
# (§3) after three days). -Test medium: glucose-agar; pH~6.9-7.0.
# Botrytis allii = assay type: cell-based; details: after three days, glucose-agar, pH~6.9-7.0
# Text: as §1, §2, §3
# Cladosporium cucumerinum = assay type: cell-based; details: after three days, glucose-agar, pH~6.9-7.0
# Text: as §1, §2, §3
# Penicillium italicum = assay type: cell-based; details: after three days, glucose-agar, pH~6.9-7.0
# Text: as §1, §2, §3
# B. subtilis = assay type: cell-based; details: B. subtilis (Gram-pos.); after three days; peptone-glucose agar; pH ~ 6.9-7.0
# Text: (§4) Antibacterial activity of organotin compounds. Minimal concentration
# (§5) causing complete inhibition of visible growth (MIC; after three days).
# (§6) Test medium: peptone-glucose agar; pH ~ 6.9-7.0.
# E. coli = assay type: cell-based; details: E. coli (Gram-neg.); after three days; peptone-glucose agar; pH ~ 6.9-7.0
# Text: as §4, §5, §6
# P. fluorescens = assay type: cell-based; details: P. fluorescens (Gram-neg.); after three days; peptone-glucose agar; pH ~ 6.9-7.0
# Text: as §4, §5, §6
# S. lactis = assay type: cell-based; details: S. lactis (Gram-pos.); after three days; peptone-glucose agar; pH ~ 6.9-7.0
# Text: as §4, §5, §6
# fungi [1] = test: Antifungal activity; assay type: cell-based
# Text: as §1, §2, §3
# bacteria = test: Antibacterial activity; assay type: cell-based
# Text: as §4, §5, §6
# physchem = details: water
# fungi [2] = details: literature citation (1); cited from earlier work
smiles,measurement,setting,value
"CCC[CH2][Sn]([CH2]CCC)([CH2]CCC)[CH2]CC(=O)OC [Bu3 Sn(CH2)2 COOMe, tributyl-(3-carbomethoxyethyl)tin]",Minimal concentration causing complete inhibition of visible growth (MIC),Aspergillus niger,5 µg/mL
same,Minimal concentration causing complete inhibition of visible growth (MIC),Botrytis allii,0.5 µg/mL
same,Minimal concentration causing complete inhibition of visible growth (MIC),Cladosporium cucumerinum,1 µg/mL
same,Minimal concentration causing complete inhibition of visible growth (MIC),Penicillium italicum,1 µg/mL
same,Minimal concentration causing complete inhibition of visible growth (MIC),B. subtilis,30 µg/mL
same,Minimal concentration causing complete inhibition of visible growth (MIC),E. coli,100 µg/mL
same,Minimal concentration causing complete inhibition of visible growth (MIC),P. fluorescens,> 1000 µg/mL
same,Minimal concentration causing complete inhibition of visible growth (MIC),S. lactis,30 µg/mL
same,antifungal activity (in words),fungi [1],high antifungal and antibacterial activity
same,antibacterial activity (in words),bacteria,high antifungal and antibacterial activity
"CCC[CH2][Sn]([CH2]CCC)([CH2]CCC)[CH2]CCBr [Bu3 Sn(CH2)3 Br, (3-bromopropyl)tributyltin]",antifungal activity (in words),fungi [1],"somewhat less effective, although they show a surprisingly effective antifungal activity"
"CCC[CH2][Sn]([CH2]CCC)([CH2]CCC)[CH2]CCN(C)C [Bu3 Sn(CH2)3 NMe2, (3-dimethylaminopropyl)tributyltin]",solubility,physchem,~20 mg/mL
"CCC[CH2][Sn]([CH2]CCC)([CH2]CCC)[CH2]CCCBr [Bu3 Sn(CH2)4 Br, (4-bromobutyl)tributyltin]",antifungal activity (in words),fungi [1],"somewhat less effective, although they show a surprisingly effective antifungal activity"
CCC[CH2][Sn]([Br])([CH2]CCC)[CH2]CCC [Bu3 SnBr],"antifungal activity, MIC values",fungi [2],about 10 mg/l
CCC[CH2][Sn]([CH3])([CH2]CCC)[CH2]CCNCCCN(C)C.Cl.Cl [MeBu2 Sn(CH2)3 NH(CH2)3 NMe2 . 2],Minimal concentration causing complete inhibition of visible growth (MIC),Aspergillus niger,100 µg/mL
same,Minimal concentration causing complete inhibition of visible growth (MIC),Botrytis allii,≤ 10 µg/mL
same,Minimal concentration causing complete inhibition of visible growth (MIC),Cladosporium cucumerinum,20 µg/mL
same,Minimal concentration causing complete inhibition of visible growth (MIC),Penicillium italicum,≤ 10 µg/mL
same,Minimal concentration causing complete inhibition of visible growth (MIC),B. subtilis,3 µg/mL
same,Minimal concentration causing complete inhibition of visible growth (MIC),E. coli,3 µg/mL
same,Minimal concentration causing complete inhibition of visible growth (MIC),P. fluorescens,3 µg/mL
same,Minimal concentration causing complete inhibition of visible growth (MIC),S. lactis,3 µg/mL
same,solubility in water,,50%
CCC[CH2][Sn]([CH3])([Br])[CH2]CCC [MeBu2 SnBr],"antifungal activity, MIC values",fungi [2],about 10 mg/l
"CCC[CH2][Sn]([CH3])([Br])[CH2]CC[N+](C)(C)C.[I-] (stereo not shown) [MeBuBrSn(CH2)3 NMe3 I, reference compound]",Minimal concentration causing complete inhibition of visible growth (MIC),Aspergillus niger,> 500 µg/mL
same,Minimal concentration causing complete inhibition of visible growth (MIC),Botrytis allii,> 500 µg/mL
same,Minimal concentration causing complete inhibition of visible growth (MIC),Cladosporium cucumerinum,> 500 µg/mL
same,Minimal concentration causing complete inhibition of visible growth (MIC),Penicillium italicum,> 500 µg/mL
same,"antifungal activity, MIC",fungi [1],> 500 µg/mL
CCC[CH2][Sn]([CH3])([Br])[CH2]CC (stereo not shown) [MePrBuSnBr],"antifungal activity, MIC values",fungi [2],about 10 mg/l
CC[CH2][Sn]([CH2]CC)([CH2]CC)[CH2]CCNCCCN(C)C.Cl.Cl [Pr3 Sn(CH2)3 NH(CH2)3 NMe2 . 2],Minimal concentration causing complete inhibition of visible growth (MIC),Aspergillus niger,20 µg/mL
same,Minimal concentration causing complete inhibition of visible growth (MIC),Botrytis allii,≤ 10 µg/mL
same,Minimal concentration causing complete inhibition of visible growth (MIC),Cladosporium cucumerinum,20 µg/mL
same,Minimal concentration causing complete inhibition of visible growth (MIC),Penicillium italicum,10 µg/mL
same,Minimal concentration causing complete inhibition of visible growth (MIC),B. subtilis,10 µg/mL
same,Minimal concentration causing complete inhibition of visible growth (MIC),E. coli,10 µg/mL
same,Minimal concentration causing complete inhibition of visible growth (MIC),P. fluorescens,10 µg/mL
same,Minimal concentration causing complete inhibition of visible growth (MIC),S. lactis,10 µg/mL
same,solubility in water,,50%
"CCC[CH2][Sn]([CH2]CCC)([CH2]CCC)[O][Sn]([CH2]CCC)([CH2]CCC)[CH2]CCC [bis(tributyltin)oxide, reference compound]",solubility in water,,0.003%
CCC[CH2][Sn]([CH2]CCC)([CH2]CCC)[CH2]Cc1ccncc1 [tributyl-[3-(4-pyridyl)ethyl]tin],antifungal activity (in words),fungi [1],high antifungal activity
CC[CH2][Sn]([CH2]CC)([CH2]CC)[CH2]Cc1ccncc1 [tripropyl-[3-(4-pyridyl)ethyl]tin],antifungal activity (in words),fungi [1],high antifungal as well as antibacterial activity
same,antibacterial activity (in words),bacteria,high antifungal as well as antibacterial activity
